Reference: patent US6355799B1, “Substituted benzene compounds, process for their preparation, and herbicidal and defoliant compositions containing them” (ISK Americas Incorporated, priority 1997, dated 2002)

Experiments:
Format in all cases: in vivo
[1] = system: field corn (Zea mays L., var. Dekalb 535, CORN); assay: Post-emerge test, crop safety; details: post-emerge, crop damage rating 0-100 at 14 days after application
In short: (§1)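 Rating: 0–100 visual injury, 14 DAA. Application: acetone, 187 l/ha, 15–1000 g ai/ha, flat-fan track sprayer with nozzle 40–45 cm above soil or canopy. Post-emerge runs used 0.25% v/v surfactant on 2–3 leaf plants.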

[2] = system: upland rice (Oryza sp., var. Tebonnet, RICE); assay: Post-emerge test, crop safety; details: post-emerge, crop damage rating 0-100 at 14 days after application
In short: as §1

[3] = system: barnyardgrass (Echinochloa crus-galli, ECHCG); assay: Pre-emerge test, greenhouse herbicide activity screening; details: pre-emerge, phytotoxicity rating 0-100 at 14 days after application
Excerpt: (§2) A standard greenhouse herbicide activity screening system was used to evaluate the herbicidal efficacy and crop safety of these test compounds. Seven broadleaf weed species including redroot pigweed (Amaranthus retroflexus, AMARE, velvetleaf (Abutilon theophrasti, ABUTH), sicklepod (Cassia obtusifolia, CASOB), ivyleaf morningglory (Ipomoea hederacea, IPOHE), lambsquarters (Chenopodium album, CHEAL), common ragweed (Ambrosia artemisizfolia L., AMBEL), and cocklebur (Xanthium strumarium, XANST) were used as test species. Four grass weed species including green foxtail (Setaria viridis, SETVI), barnyardgrass (Echinochloa crus-galli, ECHCG), johnsongrass (Sorghum halepense, SORHA), and large crabgrass (Digitaria sanguinalis, DIGSA) were also used. In addition, three crop species, field corn (Zea mays L., var. Dekalb 535, CORN), soybean (Glycine max L., var. Pella 86, SOY), and is upland rice (Oryza sp., var. Tebonnet, RICE) were included.
(§3) All plants were grown in 10 cm square plastic pots which were filled with a sandy loam soil mix. For pre-emerge tests, seeds were planted one day prior to application of the test compounds. For post-emerge tests, seeds were planted 8-21 days prior to the test to allow emergence and good foliage development prior to application of the test substances. At the time of the post-emerge application, plants of all species were usually at the 2-3 leaf stage of development.
(§4) All test compounds Were dissolved in acetone and applied to the test units in a volume of 187 l /ha. Test materials were applied at rates ranging from 15 g ai/ha to 1000 g ai/ha using a track sprayer equipped with a TJ8001E even flow flat fan spray nozzle. Plants were arranged on a shelf so that the top of the canopy (post-emerge) or top of the soil surface (pre-emerge) was 40-45 cm below the nozzle. Pressurized air was used to force the test solution through the nozzle as it was mechanically advanced (via electrically driven chain drive) over the top of all test plants/pots. This application simulates a typical commercial field herbicide application.
(§5) In the post-emerge test, a commercial non-ionic surfactant was also included (0.25% v/v) to enhance wetting of the leaf surfaces of target plants. Immediately after application, test units of the pre-emerge applications were watered at the soil surface to incorporate the test materials. Subsequently, these test units were bottom-watered. Post-emerge test units were always bottom-watered.
(§6) At 14 days after application of the test materials, phytotoxicity ratings were recorded. A rating scale of 0-100 was used as previously described in Research Methods in Weed Science, 2nd edition, B. Truelove, Ed., Southern Weed Science Society, Auburn University, Auburn, Ala. 1977. Briefly, “0” corresponds to no damage and “100” corresponds to complete death of all plants in the test unit. This scale was used both to determine efficacy against weed species and damage to crop species. Herbicide activity data for various compounds of this invention, which are shown by compound No. in Tables 1-8, are shown in Tables 11 and 12.

[4] = system: green foxtail (Setaria viridis, SETVI); assay: as above; details: pre-emerge, phytotoxicity rating 0-100 at 14 days after application
Excerpt: as §2, §3, §4, §5, §6

[5] = system: sicklepod (Cassia obtusifolia, CASOB); assay: as above; details: pre-emerge, phytotoxicity rating 0-100 at 14 days after application
Excerpt: as §2, §3, §4, §5, §6

[6] = system: velvetleaf (Abutilon theophrasti, ABUTH); assay: as above; details: pre-emerge, phytotoxicity rating 0-100 at 14 days after application
Excerpt: as §2, §3, §4, §5, §6

[7] = system: lambsquarters (Chenopodium album, CHEAL); assay: as above; details: pre-emerge, phytotoxicity rating 0-100 at 14 days after application
Excerpt: as §2, §3, §4, §5, §6

[8] = system: large crabgrass (Digitaria sanguinalis, DIGSA); assay: as above; details: pre-emerge, phytotoxicity rating 0-100 at 14 days after application
Excerpt: as §2, §3, §4, §5, §6

[9] = system: ivyleaf morningglory (Ipomoea hederacea, IPOHE); assay: as above; details: pre-emerge, phytotoxicity rating 0-100 at 14 days after application
Excerpt: as §2, §3, §4, §5, §6

[10] = system: field corn (Zea mays L., var. Dekalb 535, CORN); assay: Pre-emerge test, crop safety; details: crop damage, pre-emerge, phytotoxicity rating 0-100 at 14 days after application
In short: (§7)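 Compounds in acetone were track-sprayed at 187 l/ha, 15–1000 g ai/ha, onto sandy loam pots. Pre-emerge seeds were sown one day before spraying, with surface watering afterwards. Post-emerge plants were at the 2–3 leaf stage and sprayed with 0.25% v/v non-ionic surfactant. Injury was rated 0–100 at 14 days.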

[11] = system: upland rice (Oryza sp., var. Tebonnet, RICE); assay: Pre-emerge test, crop safety; details: crop damage, pre-emerge, phytotoxicity rating 0-100 at 14 days after application
In short: as §7

[12] = system: redroot pigweed (Amaranthus retroflexus, AMARE); assay: Pre-emerge test, greenhouse herbicide activity screening; details: pre-emerge, phytotoxicity rating 0-100 at 14 days after application
In short: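 Plants grown in 10 cm pots of sandy loam mix received acetone-dissolved compounds through a moving flat-fan nozzle. Doses ranged from 15 to 1000 g ai/ha. Pre-emerge pots were seeded one day earlier, post-emerge pots 8–21 days earlier. Fourteen days on, each pot was graded 0–100 for damage.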

[13] = system: barnyardgrass (Echinochloa crus-galli, ECHCG); assay: Post-emerge test, greenhouse herbicide activity screening; details: post-emerge, phytotoxicity rating 0-100 at 14 days after application
Excerpt: as §2, §3, §4, §5, §6

[14] = system: green foxtail (Setaria viridis, SETVI); assay: as above; details: post-emerge, phytotoxicity rating 0-100 at 14 days after application
Excerpt: as §2, §3, §4, §5, §6

[15] = system: sicklepod (Cassia obtusifolia, CASOB); assay: as above; details: post-emerge, phytotoxicity rating 0-100 at 14 days after application
Excerpt: as §2, §3, §4, §5, §6

[16] = system: velvetleaf (Abutilon theophrasti, ABUTH); assay: as above; details: post-emerge, phytotoxicity rating 0-100 at 14 days after application
Excerpt: as §2, §3, §4, §5, §6

[17] = system: lambsquarters (Chenopodium album, CHEAL); assay: as above; details: post-emerge, phytotoxicity rating 0-100 at 14 days after application
Excerpt: as §2, §3, §4, §5, §6

[18] = system: redroot pigweed (Amaranthus retroflexus, AMARE); assay: as above; details: post-emerge, phytotoxicity rating 0-100 at 14 days after application
Excerpt: as §2, §3, §4, §5, §6

[19] = system: large crabgrass (Digitaria sanguinalis, DIGSA); assay: as above; details: post-emerge, phytotoxicity rating 0-100 at 14 days after application
Excerpt: as §2, §3, §4, §5, §6

[20] = system: ivyleaf morningglory (Ipomoea hederacea, IPOHE); assay: as above; details: post-emerge, phytotoxicity rating 0-100 at 14 days after application
Excerpt: as §2, §3, §4, §5, §6

SMILES | Post-emerge Herbicidal Activity CORN ([1]; 63 g ai/ha) | Post-emerge Herbicidal Activity CORN ([1]; 250 g ai/ha) | Post-emerge Herbicidal Activity RICE ([2]; 63 g ai/ha) | Post-emerge Herbicidal Activity RICE ([2]; 250 g ai/ha) | Pre-emerge Herbicidal Activity ECHCG ([3]; rate 63 g ai/ha) | Pre-emerge Herbicidal Activity ECHCG ([3]; rate 250 g ai/ha) | Pre-emerge Herbicidal Activity SETVI ([4]; rate 63 g ai/ha) | Pre-emerge Herbicidal Activity SETVI ([4]; rate 250 g ai/ha) | Pre-emerge Herbicidal Activity CASOB ([5]; rate 63 g ai/ha) | Pre-emerge Herbicidal Activity CASOB ([5]; rate 250 g ai/ha) | Pre-emerge Herbicidal Activity ABUTH ([6]; rate 63 g ai/ha) | Pre-emerge Herbicidal Activity ABUTH ([6]; rate 250 g ai/ha) | Pre-emerge Herbicidal Activity CHEAL ([7]; rate 63 g ai/ha) | Pre-emerge Herbicidal Activity CHEAL ([7]; rate 250 g ai/ha) | Pre-emerge Herbicidal Activity DIGSA ([8]; rate 63 g ai/ha) | Pre-emerge Herbicidal Activity DIGSA ([8]; rate 250 g ai/ha) | Pre-emerge Herbicidal Activity IPOHE ([9]; rate 63 g ai/ha) | Pre-emerge Herbicidal Activity IPOHE ([9]; rate 250 g ai/ha) | Pre-emerge Herbicidal Activity CORN ([10]; rate 63 g ai/ha) | Pre-emerge Herbicidal Activity CORN ([10]; rate 250 g ai/ha) | other results
Cc1c(Cl)cc(F)c(-n2c(=O)cc(C(F)(F)F)n(C)c2=O)c1NC(=O)OCc1cccc([N+](=O)[O-])c1 [4-67] | 55 | 70 | 50 | 70 | 40 | 80 | 90 | 100 | 40 | 60 | 100 | 100 | 100 | 100 | 100 | 100 | 80 | 90 | 5 | 15 | Pre-emerge Herbicidal Activity RICE ([11]; rate 63 g ai/ha): 60; Pre-emerge Herbicidal Activity RICE ([11]; rate 250 g ai/ha): 40; Pre-emerge Herbicidal Activity AMARE ([12]; rate 63 g ai/ha): 100; Pre-emerge Herbicidal Activity AMARE ([12]; rate 250 g ai/ha): 100; Post-emerge Herbicidal Activity ECHCG ([13]; 63 g ai/ha): 40; Post-emerge Herbicidal Activity ECHCG ([13]; 250 g ai/ha): 70; Post-emerge Herbicidal Activity SETVI ([14]; 63 g ai/ha): 90; Post-emerge Herbicidal Activity SETVI ([14]; 250 g ai/ha): 90; Post-emerge Herbicidal Activity CASOB ([15]; 63 g ai/ha): 100; Post-emerge Herbicidal Activity CASOB ([15]; 250 g ai/ha): 100; Post-emerge Herbicidal Activity ABUTH ([16]; 63 g ai/ha): 100; Post-emerge Herbicidal Activity ABUTH ([16]; 250 g ai/ha): 100; Post-emerge Herbicidal Activity CHEAL ([17]; 63 g ai/ha): 100; Post-emerge Herbicidal Activity CHEAL ([17]; 250 g ai/ha): 100; Post-emerge Herbicidal Activity AMARE ([18]; 63 g ai/ha): 100; Post-emerge Herbicidal Activity AMARE ([18]; 250 g ai/ha): 100; Post-emerge Herbicidal Activity DIGSA ([19]; 63 g ai/ha): 70; Post-emerge Herbicidal Activity DIGSA ([19]; 250 g ai/ha): 80; Post-emerge Herbicidal Activity IPOHE ([20]; 63 g ai/ha): 100; Post-emerge Herbicidal Activity IPOHE ([20]; 250 g ai/ha): 100
Cc1cccc(COC(=O)Nc2c(C)c(Cl)cc(F)c2-n2c(=O)cc(C(F)(F)F)n(C)c2=O)c1 [4-68] | 95 | 100 | 60 | 80 | 60 | 98 | 100 | 100 | 40 | 100 | 100 | 100 | 100 | 100 | 100 | 100 | 40 | 100 | 45 | 80 | Pre-emerge Herbicidal Activity RICE ([11]; rate 63 g ai/ha): 50; Pre-emerge Herbicidal Activity RICE ([11]; rate 250 g ai/ha): 90; Pre-emerge Herbicidal Activity AMARE ([12]; rate 63 g ai/ha): 100; Pre-emerge Herbicidal Activity AMARE ([12]; rate 250 g ai/ha): 100; Post-emerge Herbicidal Activity ECHCG ([13]; 63 g ai/ha): 90; Post-emerge Herbicidal Activity ECHCG ([13]; 250 g ai/ha): 98; Post-emerge Herbicidal Activity SETVI ([14]; 63 g ai/ha): 100; Post-emerge Herbicidal Activity SETVI ([14]; 250 g ai/ha): 100; Post-emerge Herbicidal Activity CASOB ([15]; 63 g ai/ha): 100; Post-emerge Herbicidal Activity CASOB ([15]; 250 g ai/ha): 100; Post-emerge Herbicidal Activity ABUTH ([16]; 63 g ai/ha): 100; Post-emerge Herbicidal Activity ABUTH ([16]; 250 g ai/ha): 100; Post-emerge Herbicidal Activity CHEAL ([17]; 63 g ai/ha): 100; Post-emerge Herbicidal Activity CHEAL ([17]; 250 g ai/ha): 100; Post-emerge Herbicidal Activity AMARE ([18]; 63 g ai/ha): 100; Post-emerge Herbicidal Activity AMARE ([18]; 250 g ai/ha): 100; Post-emerge Herbicidal Activity DIGSA ([19]; 63 g ai/ha): 75; Post-emerge Herbicidal Activity DIGSA ([19]; 250 g ai/ha): 90; Post-emerge Herbicidal Activity IPOHE ([20]; 63 g ai/ha): 100; Post-emerge Herbicidal Activity IPOHE ([20]; 250 g ai/ha): 100
